Test results reported in PMC3006138, “Fexinidazole – A New Oral Nitroimidazole Drug Candidate Entering Clinical Development for the Treatment of Sleeping Sickness” (PLoS Neglected Tropical Diseases, 2010).

What was measured:
[1] = system: rat liver cells; experiment: Ex vivo unscheduled DNA synthesis; type: in vivo
Procedure: Groups of young male Sprague-Dawley rats received fexinidazole at doses of 500, 1000, or 2000 mg/kg orally, and the livers were sampled either 2–4 h or 12–14 h after administration. Hepatocyte suspensions were prepared and incubated in the presence of […] thymidine. Slides of fixed hepatocytes were coated in photographic emulsion and stored for 14 days at 4°C in the dark. The silver grains above the nuclei or cytoplasm (background) were counted, providing a measure of DNA uptake during DNA repair. The difference between these two counts indicated the extent of DNA repair (nuclear net grain count).

[2] = target: CYP3A4 (Homo sapiens, UniProt P08684); experiment: In vitro CYP-450 metabolism; type: in vitro ADME; conditions: 1.0 µM, up to 60 min
Chain of CYP3A4 (P08684 whole entry): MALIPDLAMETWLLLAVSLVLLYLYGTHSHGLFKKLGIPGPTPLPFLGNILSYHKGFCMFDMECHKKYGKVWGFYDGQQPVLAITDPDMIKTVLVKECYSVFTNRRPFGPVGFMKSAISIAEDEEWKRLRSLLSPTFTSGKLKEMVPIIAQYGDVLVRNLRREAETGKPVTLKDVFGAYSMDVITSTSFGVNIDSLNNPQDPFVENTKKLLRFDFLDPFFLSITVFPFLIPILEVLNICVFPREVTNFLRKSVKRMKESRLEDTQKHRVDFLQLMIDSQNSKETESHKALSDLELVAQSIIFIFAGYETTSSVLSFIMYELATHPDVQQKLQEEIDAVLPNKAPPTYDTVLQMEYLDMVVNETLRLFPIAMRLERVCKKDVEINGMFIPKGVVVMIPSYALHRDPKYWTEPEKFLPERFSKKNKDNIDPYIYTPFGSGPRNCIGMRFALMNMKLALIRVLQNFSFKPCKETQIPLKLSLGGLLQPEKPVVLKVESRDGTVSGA
Procedure: (§1) Duplicate samples of human recombinant CYP enzyme isotypes CYP1A2, CYP2B6, CYP2C8, CYP2C9, CYP2C19, CYP2D6, CYP3A4, CYP3A5 (10–30 pmol/mL) with NADPH as cofactor were incubated with fexinidazole, fexinidazole sulfoxide, or fexinidazole sulfone at a concentration of 1.0 µM for up to 60 min (pH 7.4, 37°C). Detection of the compounds was via HPLC-MS.

[3] = target: CYP2B6 (Homo sapiens, UniProt P20813); experiment: In vitro CYP-450 metabolism; type: in vitro ADME; conditions: 1.0 µM, up to 60 min
Chain of CYP2B6 (P20813 whole entry): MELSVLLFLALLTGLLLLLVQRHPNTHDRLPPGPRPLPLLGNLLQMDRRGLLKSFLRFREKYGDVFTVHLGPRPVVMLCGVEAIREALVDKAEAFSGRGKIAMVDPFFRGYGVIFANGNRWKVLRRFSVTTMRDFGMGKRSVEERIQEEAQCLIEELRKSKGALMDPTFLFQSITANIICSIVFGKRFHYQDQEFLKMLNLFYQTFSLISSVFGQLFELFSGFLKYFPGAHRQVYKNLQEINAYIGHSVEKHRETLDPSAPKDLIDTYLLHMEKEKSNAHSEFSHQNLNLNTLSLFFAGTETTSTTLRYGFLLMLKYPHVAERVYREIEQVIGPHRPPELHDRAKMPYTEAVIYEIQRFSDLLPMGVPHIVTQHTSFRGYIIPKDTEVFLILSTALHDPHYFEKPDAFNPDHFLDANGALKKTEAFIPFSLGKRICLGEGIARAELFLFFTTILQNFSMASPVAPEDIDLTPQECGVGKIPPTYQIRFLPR
Procedure: as §1

[4] = target: CYP3A5 (Homo sapiens, UniProt P20815); experiment: In vitro CYP-450 metabolism; type: in vitro ADME; conditions: 1.0 µM, up to 60 min
Chain of CYP3A5 (P20815 whole entry): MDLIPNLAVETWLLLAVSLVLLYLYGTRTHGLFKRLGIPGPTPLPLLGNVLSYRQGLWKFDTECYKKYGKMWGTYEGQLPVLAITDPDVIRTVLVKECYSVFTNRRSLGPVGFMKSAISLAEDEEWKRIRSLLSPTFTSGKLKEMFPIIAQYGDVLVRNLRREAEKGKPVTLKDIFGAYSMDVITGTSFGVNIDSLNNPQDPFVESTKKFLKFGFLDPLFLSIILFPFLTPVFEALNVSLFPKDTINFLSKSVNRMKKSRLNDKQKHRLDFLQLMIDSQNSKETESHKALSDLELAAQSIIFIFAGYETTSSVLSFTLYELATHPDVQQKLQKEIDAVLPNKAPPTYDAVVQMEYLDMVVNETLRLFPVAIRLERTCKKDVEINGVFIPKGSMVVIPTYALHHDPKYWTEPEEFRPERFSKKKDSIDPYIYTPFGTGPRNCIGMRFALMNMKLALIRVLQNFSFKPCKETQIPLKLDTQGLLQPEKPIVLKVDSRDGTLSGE
Procedure: as §1

[5] = target: CYP1A2 (Homo sapiens, UniProt P05177); experiment: In vitro CYP-450 metabolism; type: in vitro ADME; conditions: 1.0 µM, up to 60 min
Chain of CYP1A2 (P05177 whole entry): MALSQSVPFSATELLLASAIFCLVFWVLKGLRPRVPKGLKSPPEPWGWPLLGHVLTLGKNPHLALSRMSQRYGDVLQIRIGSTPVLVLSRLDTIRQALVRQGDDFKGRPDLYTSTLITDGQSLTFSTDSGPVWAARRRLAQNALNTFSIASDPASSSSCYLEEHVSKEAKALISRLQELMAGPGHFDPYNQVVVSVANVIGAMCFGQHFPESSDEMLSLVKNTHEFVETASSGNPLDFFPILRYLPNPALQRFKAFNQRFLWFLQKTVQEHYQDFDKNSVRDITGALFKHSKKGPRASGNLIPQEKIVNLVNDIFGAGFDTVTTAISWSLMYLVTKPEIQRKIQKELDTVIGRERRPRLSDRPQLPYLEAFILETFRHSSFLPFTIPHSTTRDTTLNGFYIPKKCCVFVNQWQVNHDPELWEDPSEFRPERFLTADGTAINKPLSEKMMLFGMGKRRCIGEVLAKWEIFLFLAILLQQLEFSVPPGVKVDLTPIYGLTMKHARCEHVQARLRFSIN
Procedure: as §1

[6] = target: CYP2C19 (Homo sapiens, UniProt P33261); experiment: In vitro CYP-450 metabolism; type: in vitro ADME; conditions: 1.0 µM, up to 60 min
Chain of CYP2C19 (P33261 whole entry): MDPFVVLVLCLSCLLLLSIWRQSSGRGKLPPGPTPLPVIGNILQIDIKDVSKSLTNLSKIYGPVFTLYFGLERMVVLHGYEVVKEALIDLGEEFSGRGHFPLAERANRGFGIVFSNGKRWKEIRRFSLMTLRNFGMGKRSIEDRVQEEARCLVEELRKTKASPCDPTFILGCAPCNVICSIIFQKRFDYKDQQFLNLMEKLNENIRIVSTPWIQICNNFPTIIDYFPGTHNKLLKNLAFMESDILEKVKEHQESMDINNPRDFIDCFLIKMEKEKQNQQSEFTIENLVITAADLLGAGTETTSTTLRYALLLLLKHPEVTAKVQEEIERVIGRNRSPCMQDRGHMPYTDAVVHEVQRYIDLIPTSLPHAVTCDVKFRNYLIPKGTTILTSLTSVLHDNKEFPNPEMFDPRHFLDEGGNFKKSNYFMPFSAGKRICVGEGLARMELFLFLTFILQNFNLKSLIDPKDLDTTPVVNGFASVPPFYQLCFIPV
Procedure: as §1

[7] = Preliminary embryo-foetal and early postnatal development study; type: in vivo, rat; conditions: pregnant rats
Procedure: In the rat study, fexinidazole was administered orally by gavage once a day from day 6 to day 17 of gestation or from day 6 of gestation to day 7 of lactation to 10 mated rat Crl:CD (SD)IGS BR rats[…]/group at doses of 50, 200, or 800 mg/kg/day. A control group received the vehicle alone (5% Tween 80/0.5% methocel).

[8] = system: bone marrow polychromatic erythrocytes; experiment: In vivo bone marrow micronucleus test; set-up: species or system mouse
Procedure: Groups of six young adult male Crl:CD-1 (ICR) mice were treated with fexinidazole at two oral doses of 0, 500, 1000, or 2000 mg/kg given 24 h apart, and bone marrows were harvested 24 h after the second dose. Slides of bone marrow cells were prepared, Giemsa stained, and 2000 polychromatic erythrocytes per animal were scored for micronuclei.

[9] = system: MDR1 (human, transfected); experiment: in vitro; conditions: dog, MDCK-MDR1, pH 7.4
Procedure: (§2) Caco-2 [36] or MDR1-MDCK (Madin Darby canine kidney cells transfected with the human multidrug resistance MDR1 gene) cell monolayers were grown to confluence on collagen-coated, microporous, polycarbonate membranes in 12-well microtitre plates. The buffer for the donor chamber was Hanks balanced salt solution with 10 mM HEPES and 15 mM glucose at pH 7.4. The buffer in the receiver chamber contained the same with the addition of 1% bovine serum albumin (BSA). The test article was added at 5 µM in the assay buffer. […] After 2 h, duplicate aliquots were taken from the donor and receiver chambers and assayed via LC/MS. The apparent permeability and recovery were calculated using standard methods.
(§3) The objective of this study was to determine the bi-directional MDR1-MDCK permeability and efflux limited absor ption potential of thr ee test compounds. […]
(§4) 4. Th e buff er in th e r ecei ver cha m ber a l so con t a in ed 1% Bovi n e Ser um Al bumin ( BSA) . Th e test compound dosing concentrations were 5 µM in th e a ssay bu f fer . […] After two hours, a l iquot s wer e t a ken fr om th e r ecei ver an d don or cha m ber s. E a ch det erm ina ti on wa s per for m ed in dupl i cat e. Th e Lucifer Yellow flux was also measur ed for each mon olayer after bein g subjected to th e test compoun ds to en sur e n o damage was in flicted to th e cell mon olayer s durin g th e flux per iod. All samples wer e assayed by LC/MS/MS usin g electrospray ionization. Analytical conditions are outlined in Attachment I. The apparent permeability, Papp, and per cen t r ecover y wer e calculated as follows: […]
(§5) dCr /dt is th e slope of th e cumulative con cen tration in th e r eceiver compartment ver sus time in µM s -1. […]

[10] = in vitro; conditions: dog
Procedure: as §2, §3, §4, §5

[11] = system: human MDR1; experiment: in vitro; conditions: dog, MDCK-MDR1, pH 7.4
Procedure: as §2, §3, §4, §5

[12] = system: MDR1-MDCK cell monolayers; experiment: in vitro; conditions: MDCK-MDR1
Procedure: as §2, §3, §4, §5

[13] = Stability of drug substance and dosing suspensions; type: physicochemical; conditions: stability data to date
Procedure: page 4: […] Pharmacokinetic Report for the study No. 0403-2007 4. METHODS […] […] 4.2. […] The suspensions were stored at +4°C. […] Three samples were analyzed for each suspension. 4.3. […] Blood was taken at […] 4.4.

[14] = in vivo; conditions: both sexes, beagle, dog, po
Procedure: In the dog repeated-dose toxicokinetic study, fexinidazole was given orally by gavage once a day for 28 days to five (control and high dose) or three (low and mid dose) beagle dogs/sex/dose at the doses of 0 (control group), 50, 200, or 800 mg/kg/day. The control group received the vehicle alone (same as above). Systemic exposure to fexinidazole and of its sulfoxide and sulfone metabolites was evaluated on days 1, 14 and 28 in the same animals used for the toxicological study. Samples were taken at predose, and 30 min, 1, 2, 4, 8 and 24 h after dosing on days 1, 14, and 28, and in addition at 48 and 72 h after treatment on day 28.

Structure (SMILES): CSc1ccc(OCc2ncc([N+](=O)[O-])n2C)cc1 [Fexinidazole, 1-methyl-2-((p-(methylthio)phenoxy)methyl)-5-nitroimidazole]
- Net nuclear grain count (2–4 h) ([1]; 500 mg/kg po): 0.0
- Net nuclear grain count (12–14 h) ([1]; 500 mg/kg po): 0.4
- Net nuclear grain count (2–4 h) ([1]; 1000 mg/kg po): −0.1
- Net nuclear grain count (12–14 h) ([1]; 1000 mg/kg po): 0.5
- Net nuclear grain count (2–4 h) ([1]; 2000 mg/kg po): −0.4
- Net nuclear grain count (12–14 h) ([1]; 2000 mg/kg po): 0.2
- UDS study result ([1]; rat, in vivo): confirmed the lack of mammalian genotoxic activity
- metabolism by the enzyme [2]: extensively metabolised
- metabolism by the enzyme [3]: extensively metabolised
- metabolism by the enzyme [4]: extensively metabolised
- metabolism by the enzyme [5]: extensively metabolised
- metabolism by the enzyme [6]: extensively metabolised
- effects on embryo-foetal and early postnatal development [7]: no adverse effects on embryos/foetuses, parturition, and neonates
- Micronucleated PCE/1000 ([8]; 500 mg/kg po ×2): 1.4
- PCE/NCE ([8]; 500 mg/kg po ×2): 0.82
- Micronucleated PCE/1000 ([8]; 1000 mg/kg po ×2): 1.1
- PCE/NCE ([8]; 1000 mg/kg po ×2): 0.75
- Micronucleated PCE/1000 ([8]; 2000 mg/kg po ×2): 1.8
- PCE/NCE ([8]; 2000 mg/kg po ×2): 0.89
- in vivo micronucleus test result ([8]; oral doses up to 2 g/kg): confirmed the lack of clastogenicity
- efflux ratio at 2 h, 5 µM [9]: 0.9
- Papp A→B at 2 h, 5 µM ([10]; MDCK-MDR1, pH 7.4): 60.6 ×10⁻⁶ cm/s
- recovery at 2 h, 5 µM ([10]; MDCK-MDR1, pH 7.4, Percent Recovery A→B): 71%
- recovery at 2 h, 5 µM ([10]; MDCK-MDR1, pH 7.4, Percent Recovery B→A): 77%
- Papp B→A at 2 h, 5 µM [11]: 55.1 ×10⁻⁶ cm/s
- Papp B-A / Papp A-B Ratio [12]: no significant efflux
- stability [13]: very stable
- NOAEL at 28 days [14]: 200 mg/kg/day
